# Reference: patent US20260102413A1, “TREATING PAIN ASSOCIATED WITH CENTRAL SENSITIZATION” (Medicon Pharmaceuticals, Inc., priority 2022, published 2026)
# Legend:
# [1] = test system: mice with paclitaxel-induced neuropathic pain (CIPN); assay: von Frey paw withdrawal threshold (mechanical allodynia), paclitaxel-induced CIPN / central sensitization, treatment of established pain, topical test compounds; format: in vivo, mouse; conditions: paclitaxel mice; PS hydrogel 5%, sulindac 0.7% topical hind paws 3x/day from day 0; lidocaine 5% cream once 30 min before; pregabalin 10 mg/kg oral once 1 h before; day 14
# Description: Paw withdrawn, licking or shaking were considered positive responses.
# (§1) The first doses were administered 5 days after the last administration of paclitaxel (i.e., at day 0).
# The PWT test was performed prior to the administration of paclitaxel (day −8) to establish the threshold in mice without neuropathic pain associated with CIPN (the value shown is an average of the PWT in all groups at day −8).
# Pain associated with CIPN was established in line with the experiments disclosed herein. Mice were treated with naproxen 2.4% (equimolar to PN 5%), aspirin 1.7% (equimolar to PA2 5%); or ibuprofen 2.5% (equimolar to PI 5%) or vehicle applied topically to both hind paws 3×/day for 14 days.
# CIPN was induced in mice with chemotherapeutic agents using established protocols (Carozzi et al, 2010; Currie et al, 2019; Eldridge et al, 2020).
# The first doses were administered 1 day after the last administration of paclitaxel (i.e., at day 0).
# as §1
# The PWT test was performed on day 21, at the end of the experiment, but was also additionally determined on day 14 for LXIX.
# [2] = test system: mice with paclitaxel-induced CIPN; assay: thermal allodynia (paw withdrawal latency, radiant heat), paclitaxel CIPN model; format: in vivo, mouse; conditions: oral PS 50 mg/kg, sulindac 33 mg/kg 3x/day, day 16 of treatment
# Description: Group 3: paclitaxel pluse sulindac (n=8)
# Thermal allodynia was also determined for the mice study groups below (with 8 mice per group): • 1. Group 1: naïve mice (i.e. no paclitaxel) • 2. Group 2: paclitaxel only • 3. Group 3: paclitaxel plus vehicle • 4. Group 4: paclitaxel plus NO-sulindace • 5. Group 5: paclitaxel plus thiol-sulindac
# [3] = test system: mice with paclitaxel-induced CIPN; assay: von Frey PWT, paclitaxel CIPN model, orally administered compounds; format: in vivo, mouse; conditions: paclitaxel 8 mg/kg x4; oral gavage 3x/day 7 days: PS 50, sulindac 33, PN 65, naproxen 35 mg/kg; day 7
# Text: CIPN was induced in mice with chemotherapeutic agents using established protocols (Carozzi et al, 2010; Currie et al, 2019; Eldridge et al, 2020). […] This dosing regimen of paclitaxel produces pain associated with CIPN with time courses that are similar to those of pain after paclitaxel administration in cancer patients.
# Group 1: naïve mice (i.e. no paclitaxel, n=8) • 2. Group 2: paclitaxel only (n=8) • 3. Group 3: paclitaxel plus vehicle (n=8) • 4. […] Group 5: paclitaxel pluse sulindac (n=8)
# The PWT test was performed on day 7.
# Phospho-naproxen (PN) and naproxen were given by oral gavage, three times a day for 7 days. Their doses were as follows: PN, 65 mg/kg; naproxen, 35 mg/kg (equimolar to PN). The response of mechanical allodynia to phospho-naproxen (PN) and naproxen was tested on day 7.
# (§2) This dosing regimen of paclitaxel produces pain associated with CIPN with time courses that are similar to those of pain after paclitaxel administration in cancer patients.
# Phospho-ibuprofen (PI) (Formula III), phospho-glycerol-ibuprofen (PGI) (Formula LXXI), phospho-ibuprofen-amide (PIA) (Formula XI), and ibuprofen were given by oral gavage, three times a day for 6 days. Their doses were as follows: ibuprofen, 40 mg/kg; PI, 80 mg/kg; PIA, 80 mg/kg; all three were equimolar.
# The response of mechanical allodynia to these compounds was tested on day 6, using the PWT test.
# as §2
# NO-sulindac (Formula XLIV), HS-sulindac (Formula XXXIV), platinum-sulindac (Formula LXVII), and NOSH-1 (Formula LIX) were given by oral gavage, three times a day throughout the study period. Their doses were all 100 mg/kg.
# The response of mechanical allodynia to these compounds was tested on the days set out in the table below, via the PWT test.
# LXIX was given by oral gavage, once a day for 14 days at a dose of 100 mg/kg.
# The response of mechanical allodynia to these compounds was tested on day 14, via the PWT test.
# [4] = test system: mice with chronic constriction injury of the left sciatic nerve (PTPN); assay: von Frey PWT, chronic constriction injury (CCI) model of PTPN, topical compounds; format: in vivo, mouse; conditions: PS 5% gel, sulindac 0.7% gel on left paw 3x/day 14 days; pregabalin (10 mg/ml) oral gavage once 1 h before; day 14
# Description: The PWT test was performed following ligation, but prior to treatment to determine baseline values. The PWT was then further measured on day 14.
# [5] = test system: mice with chronic constriction injury (PTPN); assay: von Frey PWT, CCI model of PTPN, orally administered compounds; format: in vivo, mouse; conditions: oral once a day: PS 50, PSA 50, sulindac 33 mg/kg
# Description: Phospho-ibuprofen (PI) (Formula III), phospho-ibuprofen-amide (PIA) (Formula XI), ibuprofen and vehicle control were all administered orally, three times a day for 14 days. Their doses were as follows: PI 80 mg/kg, PIA 80 mg/kg, ibuprofen 40 mg/kg (all three are equimolar). […] Group 1: vehicle (n=5-8) • 2. Group 2: ibuprofen (n=5-8) • 3. Group 3: phospho-ibuprofen (PI) (n=5-8) • 4. Group 4: phospho-ibuprofen-amide (PIA) (n=5-8)
# [6] = test system: mice with NTG-induced migraine; assay: von Frey PWT, NTG-induced migraine model, oral or intraperitoneal compounds; format: in vivo, mouse; conditions: oral 30 min after NTG: PS 50, sulindac 33, PN 65, naproxen 35 mg/kg; 30 min after administration
# Description: Phosphonaproxen (Formula VIII), and its parent compound, naproxen, were administered orally to each mouse group. All compounds were administered at equimolar doses. In particular, phosponaproxen was administered at 65 mg/kg, and naproxen was administered at 35 mg/kg, 30 minutes after NTG administration. The response of mechanical allodynia was tested 30 minutes after administration.
# [7] = format: in vivo, mouse; conditions: all tissues except the sciatic nerve (higher) and DRG (equal)
# Description: At 0.5, 1, 3, 5, 12, 18, and 24 h, mice (n=4-5 mice/time point) were euthanized with CO2 inhalation. Blood was drawn immediately after death. Tissues, including paw skin, paw muscle, leg muscle, the sciatic nerve and lumbar DRG bilaterally were dissected quickly, immediately frozen in liquid nitrogen and stored at −80° C. until analyzed.
# [8] = drug levels in proximal and distal half of the sciatic nerve after topical PS; format: in vivo, mouse; conditions: paclitaxel-PN mice, PS 8% ointment 3x/d 2 wks; 30 min after last dose
# Description: In a separate experiment we studied 8 mice with paclitaxel-induced PN treated with PS 8% ointment 3×/d for 2 wks. Mice were euthanized as above 30 minutes after the last dose of PS. From these mice we harvested both sciatic nerves dividing each into proximal and distal halves, and combined the corresponding halves of every two animals for assay of drug levels.
structure (smiles),measurement,setting,value
"CC1=C(CC(=O)O)c2cc(F)ccc2/C1=C\c1ccc([S+](C)[O-])cc1 (stereo not drawn) [sulindac, reference compound]","PWT, g Mean ± SEM",[1],0.62 ± 0.05 g
same,"PWL, sec Mean ± SEM",[2],7.87 ± 0.7 s
same,"PWT, g Mean ± SEM",[3],0.56 ± 0.05 g
same,"PWT, g Mean ± SEM",[4],0.63 ± 0.07 g
same,"PWT, g Mean ± SEM",[5]; Day 6,Day 6 = 0.6 ± 0.03 g
same,"PWT, g Mean ± SEM",[5]; Day 14,Day 14 = 0.6 ± 0.0 g
same,"PWT, g Mean ± SEM",[6],0.60 ± 0.04 g
same,sulindac levels as % of those of PS,[7],around 25%
same,Fold difference distal vs proximal,[8],8.5
